Test results from ChEMBL document CHEMBL5325475, “Discovery of a Potent and Selective Tyrosine Kinase 2 Inhibitor: TAK-279” (J Med Chem, 2023).

Columns and labels:
[1] = in vivo; conditions: cynomolgus monkey, po, 10 mg/kg
[2] = in vivo; conditions: Sprague-Dawley, rat, po, 10 mg/kg
[3] = in vivo; conditions: Sprague-Dawley, rat, po, 10 mg/kg; remark: listed apart in the source
[4] = in vivo; conditions: beagle, dog, po, 10 mg/kg
[5] = in vivo; conditions: cynomolgus monkey, po, 10 mg/kg; remark: listed apart in the source
[6] = in vivo; conditions: C57Bl/6, mouse, po, 10 mg/kg
[7] = in vivo; conditions: beagle, dog, po, 10 mg/kg; remark: listed apart in the source
[8] = in vivo; conditions: C57Bl/6, mouse, po, 10 mg/kg; remark: listed apart in the source

`CNc1cc(Nc2cccn(-c3ncccc3F)c2=O)nc2c(C(=O)N[C@@H]3C[C@@H]3F)cnn12` gave a half-life [1] of 1.4 h, a bioavailability [2] of 59% and a half-life [3] of 2.7 h. For the same compound, the half-life [4] was 3 h, the bioavailability [5] was 97% and the half-life [6] was 2.2 h. For the same compound, the bioavailability [7] was 51% and the bioavailability [8] was 52%.
`CNc1cc(Nc2cccn(-c3ncccc3F)c2=O)nc2c(C(=O)N[C@@H]3CC[C@H]3OC)cnn12` gave a bioavailability [2] of 30%, a half-life [3] of 5.9 h and a half-life [6] of 2.1 h.
`CNc1cc(Nc2cccn(-c3ccccn3)c2=O)nc2c(C(=O)N[C@H]3CC[C@@H]3OC)cnn12` (single isomer, unassigned) showed a half-life [1] of 3.8 h, a bioavailability [2] of 37% and a half-life [3] of 1.2 h. For the same compound, the half-life [4] was 5.3 h, the bioavailability [5] was 47% and the half-life [6] was 2 h. For the same compound, the bioavailability [7] was 47% and the bioavailability [8] was 70%.
